Source: patent publication US20160367623A1, “AGONISTS OF GUANYLATE CYCLASE USEFUL FOR THE TREATMENT OF GASTROINTESTINAL DISORDERS, INFLAMMATION, CANCER AND OTHER DISORDERS” (priority 2015, published 2016)
Bridge positions count the residues as written; N and C are the ends. Ends that are not written are not given here.

Tested on: patients with chronic idiopathic constipation (CIC)
Test: Second phase 3 CIC trial: change from baseline in stool consistency (BSFS)
Format: in vivo, human
[1] = 6 mg, Week 9, ITT Population-Excluding Duplicate Patients
[2] = 6 mg, Week 10, All Randomized (includes Duplicate Patients)
[3] = 6 mg, Week 10, ITT Population-Excluding Duplicate Patients
[4] = 6 mg, Week 11, All Randomized (includes Duplicate Patients)
[5] = 6 mg, Week 11, ITT Population-Excluding Duplicate Patients
[6] = 6 mg, Week 12, All Randomized (includes Duplicate Patients)
[7] = 6 mg, Week 12, ITT Population-Excluding Duplicate Patients
[8] = 6 mg, overall average estimate across the 12-week treatment period, All Randomized (includes Duplicate Patients)
[9] = 6 mg, overall average estimate across the 12-week treatment period, ITT Population
[10] = 6 mg, overall average estimate across the 12-week treatment period, ITT Population-Excluding Duplicate Patients

Asn^1-Asp^2-Glu^3-Cys^4-Glu^5-Leu^6-Cys^7-Val^8-Asn^9-Val^10-Ala^11-Cys^12-Thr^13-Gly^14-Cys^15-Leu^16 (NDECELCVNVACTGCL; disulfide 4-12, 7-15) [Plecanatide, uroguanylin analogue, guanylate cyclase-C agonist; (C4:C12, C7:C15) bicycle peptide]
Change from Baseline in Stool Consistency, LS Mean (SE) (6 mg, Week 9, All Randomized (includes Duplicate Patients)): 1.54 (0.073)
Change from Baseline in Stool Consistency, Difference from Placebo (6 mg, Week 9, ITT Population): 0.68
Change from Baseline in Stool Consistency, LS Mean (SE) (6 mg, Week 9, ITT Population): 1.57 (0.075)
Change from Baseline in Stool Consistency, Mean (SD) (6 mg, Week 9, ITT Population): 1.62 (1.507)
Change from Baseline in Stool Consistency, Difference from Placebo [1]: 0.68
Change from Baseline in Stool Consistency, LS Mean (SE) [1]: 1.59 (0.075)
Change from Baseline in Stool Consistency, Mean (SD) [1]: 1.63 (1.510)
Change from Baseline in Stool Consistency, Difference from Placebo [2]: 0.62
Change from Baseline in Stool Consistency, LS Mean (SE) [2]: 1.52 (0.073)
Change from Baseline in Stool Consistency, Difference from Placebo (6 mg, Week 10, ITT Population): 0.62
Change from Baseline in Stool Consistency, LS Mean (SE) (6 mg, Week 10, ITT Population): 1.55 (0.075)
Change from Baseline in Stool Consistency, Mean (SD) (6 mg, Week 10, ITT Population): 1.59 (1.432)
Change from Baseline in Stool Consistency, Difference from Placebo [3]: 0.63
Change from Baseline in Stool Consistency, LS Mean (SE) [3]: 1.57 (0.075)
Change from Baseline in Stool Consistency, Mean (SD) [3]: 1.60 (1.437)
Change from Baseline in Stool Consistency, Difference from Placebo [4]: 0.58
Change from Baseline in Stool Consistency, LS Mean (SE) [4]: 1.50 (0.073)
Change from Baseline in Stool Consistency, Difference from Placebo (6 mg, Week 11, ITT Population): 0.57
Change from Baseline in Stool Consistency, LS Mean (SE) (6 mg, Week 11, ITT Population): 1.53 (0.075)
Change from Baseline in Stool Consistency, Mean (SD) (6 mg, Week 11, ITT Population): 1.58 (1.499)
Change from Baseline in Stool Consistency, Difference from Placebo [5]: 0.59
Change from Baseline in Stool Consistency, LS Mean (SE) [5]: 1.55 (0.076)
Change from Baseline in Stool Consistency, Mean (SD) [5]: 1.59 (1.504)
Change from Baseline in Stool Consistency, Difference from Placebo [6]: 0.48
Change from Baseline in Stool Consistency, LS Mean (SE) [6]: 1.48 (0.074)
Change from Baseline in Stool Consistency, Difference from Placebo (6 mg, Week 12, ITT Population): 0.49
Change from Baseline in Stool Consistency, LS Mean (SE) (6 mg, Week 12, ITT Population): 1.51 (0.076)
Change from Baseline in Stool Consistency, Mean (SD) (6 mg, Week 12, ITT Population): 1.58 (1.487)
Change from Baseline in Stool Consistency, Difference from Placebo [7]: 0.51
Change from Baseline in Stool Consistency, LS Mean (SE) [7]: 1.53 (0.076)
Change from Baseline in Stool Consistency, Mean (SD) [7]: 1.59 (1.492)
Change from Baseline in Stool Consistency, Difference from Placebo [8]: 0.63
Change from Baseline in Stool Consistency, LS Mean (SE) [8]: 1.47 (0.059)
Change from Baseline in Stool Consistency, Difference from Placebo [9]: 0.63
Change from Baseline in Stool Consistency, LS Mean (SE) [9]: 1.50 (0.061)
Change from Baseline in Stool Consistency, Difference from Placebo [10]: 0.64
Change from Baseline in Stool Consistency, LS Mean (SE) [10]: 1.52 (0.061)
Change from Baseline in Stool Consistency, Mean (SD) (Active Combined, Post-Treatment Week 13, All Randomized (includes Duplicate Patients)): 1.15 (1.387)
Change from Baseline in Stool Consistency, Mean (SD) (Active Combined, Post-Treatment Week 13, ITT Population): 1.14 (1.392)
Change from Baseline in Stool Consistency, Mean (SD) (Active Combined, Post-Treatment Week 13, ITT Population-Excluding Duplicate Patients): 1.14 (1.397)
Change from Baseline in Stool Consistency, Mean (SD) (Active Combined, Post-Treatment Week 14, All Randomized (includes Duplicate Patients)): 1.12 (1.394)
Change from Baseline in Stool Consistency, Mean (SD) (Active Combined, Post-Treatment Week 14, ITT Population): 1.12 (1.379)
Change from Baseline in Stool Consistency, Mean (SD) (Active Combined, Post-Treatment Week 14, ITT Population-Excluding Duplicate Patients): 1.12 (1.384)
Change from Baseline in Stool Consistency, Mean (SD) (Active Combined, Week 1, All Randomized (includes Duplicate Patients)): 1.41 (1.482)
Change from Baseline in Stool Consistency, Mean (SD) (Active Combined, Week 1, ITT Population): 1.42 (1.490)
Change from Baseline in Stool Consistency, Mean (SD) (Active Combined, Week 1, ITT Population-Excluding Duplicate Patients): 1.43 (1.482)
Change from Baseline in Stool Consistency, Mean (SD) (Active Combined, Week 2, All Randomized (includes Duplicate Patients)): 1.41 (1.563)
Change from Baseline in Stool Consistency, Mean (SD) (Active Combined, Week 2, ITT Population): 1.42 (1.571)
Change from Baseline in Stool Consistency, Mean (SD) (Active Combined, Week 2, ITT Population-Excluding Duplicate Patients): 1.43 (1.570)
Change from Baseline in Stool Consistency, Mean (SD) (Active Combined, Week 3, All Randomized (includes Duplicate Patients)): 1.48 (1.526)
Change from Baseline in Stool Consistency, Mean (SD) (Active Combined, Week 3, ITT Population): 1.49 (1.527)
Change from Baseline in Stool Consistency, Mean (SD) (Active Combined, Week 3, ITT Population-Excluding Duplicate Patients): 1.49 (1.532)
Change from Baseline in Stool Consistency, Mean (SD) (Active Combined, Week 4, ITT Population): 1.48 (1.550)
Change from Baseline in Stool Consistency, Mean (SD) (Active Combined, Week 4, ITT Population-Excluding Duplicate Patients): 1.49 (1.557)
Change from Baseline in Stool Consistency, Mean (SD) (Active Combined, Week 5, ITT Population): 1.63 (1.530)
Change from Baseline in Stool Consistency, Mean (SD) (Active Combined, Week 5, ITT Population-Excluding Duplicate Patients): 1.64 (1.535)
Change from Baseline in Stool Consistency, Mean (SD) (Active Combined, Week 6, ITT Population): 1.62 (1.525)
Change from Baseline in Stool Consistency, Mean (SD) (Active Combined, Week 6, ITT Population-Excluding Duplicate Patients): 1.62 (1.524)
Change from Baseline in Stool Consistency, Mean (SD) (Active Combined, Week 7, ITT Population): 1.57 (1.494)
Change from Baseline in Stool Consistency, Mean (SD) (Active Combined, Week 7, ITT Population-Excluding Duplicate Patients): 1.58 (1.498)
Change from Baseline in Stool Consistency, Mean (SD) (Active Combined, Week 8, ITT Population): 1.62 (1.520)
Change from Baseline in Stool Consistency, Mean (SD) (Active Combined, Week 8, ITT Population-Excluding Duplicate Patients): 1.62 (1.523)
Change from Baseline in Stool Consistency, Mean (SD) (Active Combined, Week 9, ITT Population): 1.65 (1.487)
Change from Baseline in Stool Consistency, Mean (SD) (Active Combined, Week 9, ITT Population-Excluding Duplicate Patients): 1.65 (1.489)
Change from Baseline in Stool Consistency, Mean (SD) (Active Combined, Week 10, ITT Population): 1.62 (1.485)
Change from Baseline in Stool Consistency, Mean (SD) (Active Combined, Week 10, ITT Population-Excluding Duplicate Patients): 1.62 (1.491)
Change from Baseline in Stool Consistency, Mean (SD) (Active Combined, Week 11, ITT Population): 1.58 (1.547)
Change from Baseline in Stool Consistency, Mean (SD) (Active Combined, Week 11, ITT Population-Excluding Duplicate Patients): 1.59 (1.548)
Change from Baseline in Stool Consistency, Mean (SD) (Active Combined, Week 12, ITT Population): 1.64 (1.483)
Change from Baseline in Stool Consistency, Mean (SD) (Active Combined, Week 12, ITT Population-Excluding Duplicate Patients): 1.64 (1.484)
